# Test results reported in patent US9522164B2, “Disulfide chemotherapeutic agents and methods of use thereof” (Lankenau Institute for Medical Research, priority 2007, dated 2016).
# Tests used:
# [1] = tested on: radiation sensitive human colon cancer cells HCT116; experiment: Clonogenic (colony) assay, HEDS alone; format: cell-based
# Method: In FIG. […] The cells were washed and replenished with fresh growth medium. Colony assays were carried out by plating cells at concentration that gives no more than 200 colonies. Each experiment was repeated at least three times with errors as shown unless smaller than points plotted.
# [2] = tested on: radiation resistant human colon cancer cells HT29; experiment: Clonogenic (colony) assay, HEDS alone; format: cell-based
# Method: (§1) For FIG. 3, radiation resistant human colon cancer cells HT29 were deprived of glucose for 4 hours and then treated with various concentrations of HEDS for 3 hours. The cells were washed and replenished with fresh growth medium. For FIG. 4, HT29 cells were deprived of glucose for 4 hours, treated with various concentrations of HEDS, and then treated for 1 hour before 4 Gy irradiation. Two hours after irradiation, the cells were washed and replenished with fresh growth medium. Colony assays were carried out by plating cells at concentration that gives no more than 200 colonies. Each experiment was repeated at least three times with errors as shown unless smaller than points plotted. […]
# HCT116 cells = experiment: Colony assay, HEDS plus 4 Gy irradiation; format: cell-based, human; conditions: HCT116, absence of glucose, HEDS 1 hour before 4 Gy irradiation
# Method: For FIG. 2, HCT116 cells were deprived of glucose for 4 hours, treated with various concentrations of HEDS for 1 hour, and then exposed to 4 Gy irradiation. Two hours after irradiation, the cells were washed and replenished with fresh growth medium. The colony assay was then performed as described above for FIG. 1.
# HT29 cells = experiment: Colony assay, HEDS plus 4 Gy irradiation; format: cell-based, human; conditions: HT29, absence of glucose, HEDS 1 hour before 4 Gy irradiation
# Method: as §1
# [3] = tested on: human colon cancer cells HCT116; experiment: Depletion of intracellular thiols (Ellman's reagent); format: cell-based; conditions: HEDS 3 hours
# Method: (§2) The depletion of intracellular thiols by HEDS in human colon cancer cells HCT116 and HT29 was determined by first depriving the cells of glucose for 4 hours. After three hours of HEDS treatment, the attached cells were washed with cell rinse and lysed with 1 ml of sulphosalicyclic acid (SSA) lysis buffer. The samples were then centrifuged at high speed in a Fisher 59A microfuge and the supernatant was used for quantification of intracellular thiols using Ellman's reagent. Each experiment was repeated at least three times with errors as shown unless smaller than points plotted.
# For the estimation of intracellular thiols in HCT116 cells, the cells were incubated with different concentrations of glucose for 4 hours. For FIG. 12, the cells were then treated with HEDS for 3 hours. After treatment, the attached cells were washed with cell rinse and lysed with 1 ml of sulphosalicyclic acid (SSA) lysis buffer. The samples were centrifuged at high speed in a Fisher 59A microfuge and the supernatant was used for quantification of intracellular thiols using Ellman's reagent. Each experiment was repeated at least three times with errors as shown unless smaller than points plotted.
# [4] = tested on: human colon cancer cells HT29; experiment: as above; format: cell-based; conditions: HEDS 3 hours
# Method: as §2, with “The depletion of intracellular thiols by HEDS in human colon cancer cells HCT116 and HT29 was determined by first depriving the cells of glucose for 4 hours.” left out
# breast tumor xenografts = experiment: Response of tumor xenografts in rats to etoposide with HEDS; format: in vivo; conditions: HEDS 10 mg/kg/day IP one hour before etoposide 12 mg/Kg/day IP, three consecutive days, tumor about 8×8 mm
# Method: The use of HEDS, an oxidant/disulfide, to increase the response of tumor xenografts to topoisomerase II inhibitor, etoposide, was also investigated. […] The effect of HEDS (0 and 10 mg/kg/day) on the response of tumor to etoposide (12 mg/Kg/day) was determined in rats with tumor of approximately 8×8 mm in size. HEDS in physiological saline was administered at 0 and 10 mg/kg via IP injections. At one hour after HEDS administration, etoposide was administered to these rats by IP. This treatment was continued for three consecutive days. Tumor growth was measured twice a week for up to two weeks.
# [5] = tested on: breast cancer cell line (MCF7); experiment: Radiation response (survival after 4Gy γ irradiation) with HEDS; format: cell-based, human; conditions: MCF7, absence of glucose
# Description: (§3) FIGS. 17 and 18 show the impact of HEDS on the radiation response of a breast cancer cell line (MCF7) and a prostate cancer cell line (DU145) in the presence and absence of glucose.
# [6] = tested on: prostate cancer cell line (DU145); experiment: as above; format: cell-based, human; conditions: DU145, absence of glucose
# Description: as §3
# breast tumor xenograft = experiment: Breast tumor xenograft model in rats, MPG disulfide with or without cisplatin; format: in vivo
# Method: (§4) The efficacy of MPG disulfide in improving the response to cisplatin in the breast tumor xenograft model in rats was tested. MPG disulfide was tested against two different tumor sizes. These different tumor sizes were achieved by growing the tumor in rats for up to 6 days (small tumor, FIG. 13) or 12 days (large tumor, FIGS. 14 and 15). MPG disulfide was determined to be non-toxic to the animals.
# (§5) The response of tumors to MPG disulfide was determined in rats with either small tumors (approximately 139 mm^3) or large tumors (approximately 2837 mm^3). MPG disulfide in physiological saline was administered at 40 mg/Kg/day via IP injections. The control animals were treated with saline. This treatment was continued for three consecutive days. […] Each group (control or MPG disulfide) consists of at least three animals. Each data point is mean of at least three animals with standard error as shown unless smaller than points plotted.
# (§6) The improved response of large tumors to cisplatin by MPG disulfide was determined in rats with tumors of approximately 2837 mm^3 in tumor volume. MPG disulfide in physiological saline was administered at 40 mg/kg/day via IP injections. At one hour after MPG disulfide administration, cisplatin (2 mg/kg) was administered to these rats by IP. MPG treatment alone without cisplatin was continued for two more days in these animals. […] Each group (cisplatin or MPG disulfide with cisplatin) consists of at least three animals. Each data point is mean of at least three animals with standard error as shown unless smaller than points plotted.
# [7] = Tolerability in tumor-bearing rats; format: in vivo
# Method: as §4, §5, §6
compound,measurement,setting,value
"OCCSSCCO [HEDS, hydroxyethyldisulfide]",cytotoxic effect (clonogenic survival),"[1]; HCT116, HEDS alone 3 hours, presence of glucose",little/no cytotoxic effects
same,decrease in survival,"[1]; HCT116, absence of glucose (deprived 4 hours), higher concentration of HEDS alone, 3 hours",75%
same,cytotoxic effect (clonogenic survival),"[2]; HT29, HEDS alone 3 hours, presence of glucose",little/no cytotoxic effects
same,effect on survival,"[2]; HT29, absence of glucose (deprived 4 hours), higher concentration of HEDS alone",no significant effect
same,sensitization to radiation,HCT116 cells,sensitization
same,sensitization to radiation,HT29 cells,sensitization
same,intracellular thiols,"[3]; HCT116, glucose deprived 4 hours",≥ 40 % of the control
same,intracellular thiols,"[3]; HCT116, low concentrations (1-3 mM) of glucose",intracellular thiol depletion
same,intracellular thiols,"[3]; HCT116, with glucose",maintaining the intracellular thiols
same,intracellular thiols,"[4]; HT29, glucose deprived 4 hours",≥ 40 % of the control
same,intracellular thiols,"[4]; HT29, with glucose",maintaining the intracellular thiols
same,better tumor response with HEDS and etoposide compared to etoposide alone,breast tumor xenografts,at least 50%
same,radiation response,[5],significantly increased
same,radiation response,[6],significantly increased
"N.N.[Cl][Pt][Cl] [Cisplatin, cis-diamine-dichloroplatinum (II), reference compound]",tumor volume on day 13 after the treatment,"breast tumor xenograft; large tumors, cisplatin alone 2 mg/kg IP",4355±577 mm^3
same,tumor volume at start of treatment,"breast tumor xenograft; large tumors, cisplatin alone group, baseline",2948±180 mm^3
"CC(SSC(C)C(=O)NCC(=O)O)C(=O)NCC(=O)O (stereo not drawn) [MPG disulfide, disulfide of mercaptopropionylglycine (MPG) (glycinepropionyldisulfide)]",effect on tumors,"breast tumor xenograft; MPG disulfide in combination with cisplatin, even large tumors",completely eliminated tumors
same,tumor volume on day 13 after the start of the treatment,"breast tumor xenograft; large tumors, MPG disulfide 40 mg/kg/day IP (3 days) in combination with cisplatin 2 mg/kg IP",112±47 mm^3
same,increase in tumor size,"breast tumor xenograft; large tumors, MPG disulfide alone 40 mg/Kg/day IP, day 5 after the treatment",3 fold
same,tumor volume at start of treatment,"breast tumor xenograft; large tumors, MPG disulfide alone group, baseline",2848±538 mm^3
same,tumor smaller than the untreated animals,"breast tumor xenograft; large tumors, MPG disulfide alone, day 5 after the treatment",2.5 fold
same,maximum tumor size,"breast tumor xenograft; large tumors, MPG disulfide alone, day 8","18,038±1289 mm^3"
same,tumor smaller compared to cisplatin group,"breast tumor xenograft; large tumors, MPG disulfide in combination with cisplatin, day 13",38 fold
same,tumor volume at start of treatment,"breast tumor xenograft; large tumors, cisplatin and MPG disulfide combination group, baseline",2402±218 mm^3
same,tumor volume on day 13,"breast tumor xenograft; small tumors, MPG disulfide alone 40 mg/Kg/day IP, three consecutive days",126±119 mm^3
same,growth of small size tumors,"breast tumor xenograft; small tumors, MPG disulfide alone 40 mg/Kg/day IP, to day 13",completely inhibited the growth
same,tumor volume on the day of treatment,"breast tumor xenograft; small tumors, MPG disulfide alone group, baseline",139±4.29 mm^3
same,observable side effects,"[7]; MPG disulfide 40 mg/Kg/day IP, three consecutive days",did not cause any observable side effects
same,observable side effects,"[7]; MPG disulfide 40 mg/kg/day IP with cisplatin 2 mg/kg IP, MPG continued two more days",did not cause any observable side effects
same,toxicity to the animals,[7]; rats with breast tumor xenograft,non-toxic
